Data: patent US20240358693A1, “METHODS OF TREATING PAIN” (Aisa Pharma, Inc., priority 2023, published 2024)

Columns and labels:
participants with SSc-RP [1] = test: Average daily Raynaud's Condition Score (RCS); assay type: in vivo, human; set-up: key to Average Daily RCS, Mean / Average Daily RCS, Median / Average Daily RCS, Change from Baseline, Mean / Average Daily RCS, Change from Baseline, Median / Average daily RCS, Baseline, Mean / Average daily RCS, Baseline, Median / Mean RCS at baseline: RCS rated on a 0-10 cm VAS scale; conditions: for Average Daily RCS, Change from Baseline, Mean / Average Daily RCS, Change from Baseline, Median / Average Daily RCS, Percent Change from Baseline, Mean / Average Daily RCS, Percent Change from Baseline, Median / Average Daily RCS, Mean / Average Daily RCS, Median / Average Daily RCS (dosing period), Mean / Average Daily RCS (dosing period), Median / Average daily RCS, Baseline, Mean / Average daily RCS, Baseline, Median: ITT Part A; for Average Daily RCS, Mean / Average Daily RCS, Median: dosing period
From the text: The RCS is based on how much difficulty participants had with Raynaud's today, how many attacks the participant had, and how long they lasted. In addition participants were and will be asked to consider how much pain, numbness, or other symptoms the Raynaud's caused in fingers (including painful sores), and how much the Raynaud's along affected the use of hand today (VAS 0-10 cm scale).
The absolute change in average daily RCS from baseline to the end of each dosing period was and will be a secondary outcome variable. The sponsor-developed participant-informed diary has been and will be used to record data. The average daily RCS is defined as the total RCS divided by the number of days with available diary data of each dosing period. Total RCS during screening period divided by the number of days with available data will be used as baseline for the analysis of all periods. If there are multiple daily RCS scores, the latest daily RCS will be used. The variable will be calculated similar to frequency data as before.

participants with SSc-RP [2] = test: Adverse events and serious adverse events (safety, tolerability); assay type: in vivo
From the text: An AE is any event, side effect, or other untoward medical occurrence that occurs in conjunction with the use of a medicinal product in humans, whether or not considered to have a causal relationship to this treatment.
Severity of AEs will be graded by the Investigator as one of: • Mild (Grade 1): A type of AE that is usually transient and may require only minimal treatment or therapeutic intervention.
An SAE is an AE occurring during any study phase (i.e., baseline, treatment, washout, or follow-up), and at any dose of the study drug (active or placebo), that fulfills one or more of the following: • Results in death • It is immediately life-threatening • It requires in participant hospitalization or prolongation of existing hospitalization • It results in persistent or significant disability or incapacity • Results in a congenital abnormality or birth defect • It is an important medical event that may jeopardize the participant or may require medical intervention to prevent one of the outcomes listed above.
Treatment-emergent AEs (TEAEs) are defined as AEs that occur or worsen after the dose of study drug. If the timing of the start of an AE could not be determined unambiguously from the start or end dates provided, it will be assumed to be a TEAE. An AE is considered related if the relationship to either of the study drug has been indicated as possibly or probably or definite related by the investigator. An AE leading to study withdrawal is defined as an AE that cause a subject early terminated from the study. AEs will be identified as emerging in the following parts: • TEAEs for Part A will be those that started during Part A (i.e., from the first dose in Part A to end of follow up of Part A). • TEAEs for Part B will be those that started during Part B (i.e., from the first dose in Part B to end of follow-up of Part B).
Adverse events were coded using the most current version of the MedDRA® Version 22.0 or higher. The analysis of AEs was based on the concept of treatment emergent AEs. Treatment emergent AEs were tabulated by treatment group and included the number of participants for whom the event occurred, the severity, and relationship to study drug. Treatment emergent AEs (TEAEs) leading to discontinuation and SAEs with onset after the start of study drug were also summarized. All AEs and SAEs (including those with onset or worsening before the start of study drug) through the end of the study were listed.

Nav 1.7 sodium channel = Nav 1.7 sodium channel (Homo sapiens, UniProt Q15858); conditions: 20 mg dose of cilnidipine; cited from earlier work
plasma protein = conditions: oral; cited from earlier work
[3] = excluding outliers, dose Cilnidipine 10 mg, Tadalafil 5 mg, or 10 mg + 5 mg
[4] = excluding outliers, dose Cilnidipine 20 mg, or 20 mg + Tadalafil 5 mg
[5] = excluding outliers, pooled 10 mg and 20 mg Cilnidipine arms (combination: + Tadalafil 5 mg)
[6] = excluding outliers, pooled Cilnidipine 10 mg and Cilnidipine 10 mg + Tadalafil 5 mg
[7] = excluding outliers, pooled Cilnidipine 20 mg and Cilnidipine 20 mg + Tadalafil 5 mg
[8] = Pooled Cilnidipine 10 mg and Cilnidipine 10 mg + Tadalafil 5 mg
[9] = Pooled Cilnidipine 20 mg and Cilnidipine 20 mg + Tadalafil 5 mg

Sequence of Nav 1.7 sodium channel (Q15858 whole entry): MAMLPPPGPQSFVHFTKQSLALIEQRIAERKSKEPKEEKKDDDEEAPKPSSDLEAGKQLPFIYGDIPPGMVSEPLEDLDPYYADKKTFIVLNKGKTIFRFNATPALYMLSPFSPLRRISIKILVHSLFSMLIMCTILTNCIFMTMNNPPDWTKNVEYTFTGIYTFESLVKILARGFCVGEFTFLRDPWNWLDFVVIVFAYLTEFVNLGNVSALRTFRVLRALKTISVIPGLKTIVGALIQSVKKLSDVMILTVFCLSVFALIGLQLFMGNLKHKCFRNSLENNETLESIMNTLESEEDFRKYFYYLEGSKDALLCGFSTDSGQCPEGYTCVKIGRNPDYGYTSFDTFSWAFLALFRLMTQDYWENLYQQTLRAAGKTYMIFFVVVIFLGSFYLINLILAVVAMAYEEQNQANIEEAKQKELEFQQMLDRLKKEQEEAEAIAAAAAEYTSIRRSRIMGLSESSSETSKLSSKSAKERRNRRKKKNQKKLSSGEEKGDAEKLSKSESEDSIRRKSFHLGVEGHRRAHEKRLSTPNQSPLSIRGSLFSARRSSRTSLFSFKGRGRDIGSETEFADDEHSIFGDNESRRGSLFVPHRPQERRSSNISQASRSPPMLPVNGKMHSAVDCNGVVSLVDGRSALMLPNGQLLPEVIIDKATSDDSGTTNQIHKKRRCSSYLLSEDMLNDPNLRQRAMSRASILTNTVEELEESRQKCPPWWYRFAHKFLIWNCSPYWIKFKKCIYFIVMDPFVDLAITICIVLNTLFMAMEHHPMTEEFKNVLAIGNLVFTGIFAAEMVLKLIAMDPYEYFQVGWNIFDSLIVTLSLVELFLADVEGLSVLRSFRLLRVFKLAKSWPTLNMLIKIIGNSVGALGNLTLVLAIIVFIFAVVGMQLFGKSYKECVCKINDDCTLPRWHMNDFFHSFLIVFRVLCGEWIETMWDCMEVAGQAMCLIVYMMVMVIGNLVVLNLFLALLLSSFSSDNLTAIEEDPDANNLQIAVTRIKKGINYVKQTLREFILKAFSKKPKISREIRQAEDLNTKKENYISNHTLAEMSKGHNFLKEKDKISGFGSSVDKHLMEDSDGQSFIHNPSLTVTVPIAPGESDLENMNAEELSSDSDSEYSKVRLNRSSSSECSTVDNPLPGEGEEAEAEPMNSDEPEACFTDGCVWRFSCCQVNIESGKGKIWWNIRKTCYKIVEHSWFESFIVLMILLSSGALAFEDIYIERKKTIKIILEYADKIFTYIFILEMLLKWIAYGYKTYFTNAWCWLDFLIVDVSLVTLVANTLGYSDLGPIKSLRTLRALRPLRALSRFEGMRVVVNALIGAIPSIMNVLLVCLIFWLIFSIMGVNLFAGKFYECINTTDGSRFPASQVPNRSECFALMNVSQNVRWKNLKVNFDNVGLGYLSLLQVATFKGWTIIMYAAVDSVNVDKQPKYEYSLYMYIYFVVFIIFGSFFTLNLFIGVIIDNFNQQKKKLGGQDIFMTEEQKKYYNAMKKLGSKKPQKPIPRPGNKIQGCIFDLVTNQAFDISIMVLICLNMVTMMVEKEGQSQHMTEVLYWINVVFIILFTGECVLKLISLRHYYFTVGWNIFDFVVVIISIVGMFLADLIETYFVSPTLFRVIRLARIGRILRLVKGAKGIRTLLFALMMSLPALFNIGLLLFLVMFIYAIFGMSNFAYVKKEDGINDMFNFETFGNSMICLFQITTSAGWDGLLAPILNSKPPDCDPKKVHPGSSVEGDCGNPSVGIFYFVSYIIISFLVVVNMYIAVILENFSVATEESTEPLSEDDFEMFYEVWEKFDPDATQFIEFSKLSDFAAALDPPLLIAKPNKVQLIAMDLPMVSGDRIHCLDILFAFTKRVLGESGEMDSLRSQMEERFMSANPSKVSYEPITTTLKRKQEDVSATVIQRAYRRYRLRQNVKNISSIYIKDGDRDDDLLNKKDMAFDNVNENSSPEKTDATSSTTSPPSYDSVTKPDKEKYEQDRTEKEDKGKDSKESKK

SMILES: COCCOC(=O)C1=C(C)NC(C)=C(C(=O)OC/C=C/c2ccccc2)C1c1cccc([N+](=O)[O-])c1 (stereo not shown) [Cilnidipine, cilnidipine]
- Average Daily RCS, Change from Baseline, Mean (participants with SSc-RP [1]; Cilnidipine 10 mg): −0.98
- Average Daily RCS, Change from Baseline, Median (participants with SSc-RP [1]; Cilnidipine 10 mg): −0.98
- Average Daily RCS, Percent Change from Baseline, Mean (participants with SSc-RP [1]; Cilnidipine 10 mg): −35.74%
- Average Daily RCS, Percent Change from Baseline, Median (participants with SSc-RP [1]; Cilnidipine 10 mg): −35.74%
- Average Daily RCS, Mean (participants with SSc-RP [1]; Cilnidipine 10 mg): 1.76
- Average Daily RCS, Median (participants with SSc-RP [1]; Cilnidipine 10 mg): 1.76
- Average Daily RCS, Change from Baseline, Mean (participants with SSc-RP [1]; Cilnidipine 20 mg): −0.45
- Average Daily RCS, Change from Baseline, Median (participants with SSc-RP [1]; Cilnidipine 20 mg): −0.45
- Average Daily RCS, Percent Change from Baseline, Mean (participants with SSc-RP [1]; Cilnidipine 20 mg): −17.16%
- Average Daily RCS, Percent Change from Baseline, Median (participants with SSc-RP [1]; Cilnidipine 20 mg): −17.16%
- Average Daily RCS, Mean (participants with SSc-RP [1]; Cilnidipine 20 mg): 2.90
- Average Daily RCS, Median (participants with SSc-RP [1]; Cilnidipine 20 mg): 2.90
- Daily RCS Change (participants with SSc-RP [1]; Cilnidipine (20 mg) (n = 3)): −28%
- Mean % reduction in RCS (participants with SSc-RP [1]; Cilnidipine (20 mg) (n = 3)): 27.9%
- Mean RCS at baseline (participants with SSc-RP [1]; Cilnidipine (20 mg) (n = 3)): 3.5
- Average Daily RCS (dosing period), Mean (participants with SSc-RP [1]; [3]): 1.76
- Average Daily RCS (dosing period), Median (participants with SSc-RP [1]; [3]): 1.76
- Average Daily RCS, Change from Baseline, Mean (participants with SSc-RP [1]; [3]): −0.98
- Average Daily RCS, Change from Baseline, Median (participants with SSc-RP [1]; [3]): −0.98
- Average Daily RCS, Percent Change from Baseline, Mean (participants with SSc-RP [1]; [3]): −35.74%
- Average Daily RCS, Percent Change from Baseline, Median (participants with SSc-RP [1]; [3]): −35.74%
- Average daily RCS, Baseline, Mean (participants with SSc-RP [1]; [3]): 2.74
- Average daily RCS, Baseline, Median (participants with SSc-RP [1]; [3]): 2.74
- Average Daily RCS (dosing period), Mean (participants with SSc-RP [1]; [4]): 2.90
- Average Daily RCS (dosing period), Median (participants with SSc-RP [1]; [4]): 2.90
- Average Daily RCS, Change from Baseline, Mean (participants with SSc-RP [1]; [4]): −0.45
- Average Daily RCS, Change from Baseline, Median (participants with SSc-RP [1]; [4]): −0.45
- Average Daily RCS, Percent Change from Baseline, Mean (participants with SSc-RP [1]; [4]): −17.16%
- Average Daily RCS, Percent Change from Baseline, Median (participants with SSc-RP [1]; [4]): −17.16%
- Average daily RCS, Baseline, Mean (participants with SSc-RP [1]; [4]): 3.35
- Average daily RCS, Baseline, Median (participants with SSc-RP [1]; [4]): 3.35
- Average Daily RCS (dosing period), Mean (participants with SSc-RP [1]; [5]): 2.52
- Average Daily RCS (dosing period), Median (participants with SSc-RP [1]; [5]): 1.76
- Average Daily RCS, Change from Baseline, Mean (participants with SSc-RP [1]; [5]): −0.63
- Average Daily RCS, Change from Baseline, Median (participants with SSc-RP [1]; [5]): −0.98
- Average Daily RCS, Percent Change from Baseline, Mean (participants with SSc-RP [1]; [5]): −23.35%
- Average Daily RCS, Percent Change from Baseline, Median (participants with SSc-RP [1]; [5]): −35.74%
- Average daily RCS, Baseline, Mean (participants with SSc-RP [1]; [5]): 3.15
- Average daily RCS, Baseline, Median (participants with SSc-RP [1]; [5]): 2.80
- Average Daily RCS (dosing period), Mean (participants with SSc-RP [1]; [6]): 2.43
- Average Daily RCS (dosing period), Median (participants with SSc-RP [1]; [6]): 1.76
- Average Daily RCS, Change from Baseline, Mean (participants with SSc-RP [1]; [6]): −1.64
- Average Daily RCS, Change from Baseline, Median (participants with SSc-RP [1]; [6]): −1.51
- Average Daily RCS, Percent Change from Baseline, Mean (participants with SSc-RP [1]; [6]): −41.77%
- Average Daily RCS, Percent Change from Baseline, Median (participants with SSc-RP [1]; [6]): −36.47%
- Average daily RCS, Baseline, Mean (participants with SSc-RP [1]; [6]): 4.07
- Average daily RCS, Baseline, Median (participants with SSc-RP [1]; [6]): 2.85
- Average Daily RCS (dosing period), Mean (participants with SSc-RP [1]; [7]): 3.60
- Average Daily RCS (dosing period), Median (participants with SSc-RP [1]; [7]): 3.82
- Average Daily RCS, Change from Baseline, Mean (participants with SSc-RP [1]; [7]): −1.08
- Average Daily RCS, Change from Baseline, Median (participants with SSc-RP [1]; [7]): −0.59
- Average Daily RCS, Percent Change from Baseline, Mean (participants with SSc-RP [1]; [7]): −18.93%
- Average Daily RCS, Percent Change from Baseline, Median (participants with SSc-RP [1]; [7]): −20.71%
- Average daily RCS, Baseline, Mean (participants with SSc-RP [1]; [7]): 4.68
- Average daily RCS, Baseline, Median (participants with SSc-RP [1]; [7]): 3.74
- Average Daily RCS, Change from Baseline, Mean (participants with SSc-RP [1]; [8]): −1.64
- Average Daily RCS, Change from Baseline, Median (participants with SSc-RP [1]; [8]): −1.51
- Average Daily RCS, Percent Change from Baseline, Mean (participants with SSc-RP [1]; [8]): −41.77%
- Average Daily RCS, Percent Change from Baseline, Median (participants with SSc-RP [1]; [8]): −36.47%
- Average Daily RCS, Mean (participants with SSc-RP [1]; [8]): 2.43
- Average Daily RCS, Median (participants with SSc-RP [1]; [8]): 1.76
- Average Daily RCS, Change from Baseline, Mean (participants with SSc-RP [1]; [9]): −1.08
- Average Daily RCS, Change from Baseline, Median (participants with SSc-RP [1]; [9]): −0.59
- Average Daily RCS, Percent Change from Baseline, Mean (participants with SSc-RP [1]; [9]): −18.93%
- Average Daily RCS, Percent Change from Baseline, Median (participants with SSc-RP [1]; [9]): −20.71%
- Average Daily RCS, Mean (participants with SSc-RP [1]; [9]): 3.60
- Average Daily RCS, Median (participants with SSc-RP [1]; [9]): 3.82
- Daily RCS Change (participants with SSc-RP [1]; Pooled Cilnidipine (n = 7), this value n = 3): 12% (n = 3)
- Average Daily RCS, Change from Baseline, Mean (participants with SSc-RP [1]; Pooled Cilnidipine): −0.63
- Average Daily RCS, Change from Baseline, Median (participants with SSc-RP [1]; Pooled Cilnidipine): −0.98
- Average Daily RCS, Percent Change from Baseline, Mean (participants with SSc-RP [1]; Pooled Cilnidipine): −23.35%
- Average Daily RCS, Percent Change from Baseline, Median (participants with SSc-RP [1]; Pooled Cilnidipine): −35.74%
- Average Daily RCS, Mean (participants with SSc-RP [1]; Pooled Cilnidipine): 2.52
- Average Daily RCS, Median (participants with SSc-RP [1]; Pooled Cilnidipine): 1.76
- Safety: number of AE (participants with SSc-RP [2]; Cilnidipine 20 mg, HA-mild, n = 8): 1AE (HA-mild; 1
- Safety: withdrawals (participants with SSc-RP [2]; Cilnidipine 20 mg, n = 8): 1AE (HA-mild; 1
- Safety: number of AE (participants with SSc-RP [2]; Pooled Cilnidipine, in combo with T, n = 9): 1AE (in combo with T);
- Safety: withdrawals (participants with SSc-RP [2]; Pooled Cilnidipine, n = 9): no withdrawals
- incidence of Adverse Events / overall adverse event rate (participants with SSc-RP [2]; all patients who received any dose of cilnidipine (n=17)): 17%
- tolerability (participants with SSc-RP [2]; cilnidipine 10 mg and 20 mg, alone or in combination with tadalafil): well tolerated
- severity grade of adverse events reported (participants with SSc-RP [2]; patients treated with cilnidipine): only mild (Grade 1)
- Safety: grade of Adverse Events (AEs) (participants with SSc-RP [2]; summary of data (Table S)): Grade 1 Adverse
- Safety: treatment D/Cs (discontinuations) (participants with SSc-RP [2]; summary of data (Table S)): No treatment D/Cs
- inhibition of Nav 1.7 compared to an 1800 mg dose of gabapentin (Nav 1.7 sodium channel): > 6 fold
- protein bound (protein binding in plasma) when given orally (plasma protein): 98%
